Measurements: patent US20100255580A1, “Differentiation of Human Embryonic Stem Cells” (LIFESCCAN, INC., priority 2007, published 2010)
Like-named read-outs stand apart in the source and are kept apart here.

System: H9 embryonic stem cells
Type: cell-based, human
Conditions: DE treatment in low serum
Experimental: Controls for each group included cells plated on […]-coated dishes and cultured in MEF-conditioned medium or cells plated on MEFs and cultured in ES medium. All groups contained three biological replicates and each biological replicate was repeated on two separate gene chips.
Sample preparation, hybridization, and image analysis were performed according to the Affymetrix Human Genome U133 Plus 2.0 Array. Following normalization and a log transformation, data analysis was performed using OmniViz® software (MA) and […] (VizXLabs, WA). Significant differences in gene expression between the samples were evaluated using analysis of variance and an F-test with adjusted P-value (Benjamini and
Hochberg correction) of ≦b 0.05. Only genes with a present call in at least one group were included in the analysis.

## Activin A: a member of the TGFβ superfamily; R&D Systems; Group 2 = Activin A (100 ng/ml)
On MATRIGEL
  mean normalized intensity (log format), gene: DKFZP566K1924 protein: 2.882
  mean normalized intensity (log format), gene: ESTs (r2006): 1.5857
  mean normalized intensity (log format), gene: ESTs (r2025): 1.531
  mean normalized intensity (log format), gene: ESTs (r2032): 0.1336
  mean normalized intensity (log format), gene: ESTs (r2038): 3.262
  mean normalized intensity (log format), gene: ESTs (r2134): −1.3795
  mean normalized intensity (log format), gene: ESTs (r2148): 4.454
  mean normalized intensity (log format), gene: ESTs, Moderately similar to ALU2_HUMAN ALU SUBFAMILY SB SEQUENCE CONTAMINATION WARNING ENTRY (H. sapiens): 4.241
  mean normalized intensity (log format), gene: H. sapiens mRNA for B-HLH DNA binding protein.: 5.43
  mean normalized intensity (log format), gene: Homo sapiens BCL2-interacting killer (apoptosis-inducing) (BIK), mRNA.: 4.3
  mean normalized intensity (log format), gene: Homo sapiens Charot-Leyden crystal protein (CLC), mRNA.: 3.301
  mean normalized intensity (log format), gene: Homo sapiens HES-related repressor protein 1 HERP1 mRNA, complete cds.: 2.806
  mean normalized intensity (log format), gene: Homo sapiens HSPC156 protein (HSPC156), mRNA.: 0.7862
  mean normalized intensity (log format), gene: Homo sapiens KIAA0469 gene product (KIAA0469), mRNA.: 4.031
  mean normalized intensity (log format), gene: Homo sapiens PNAS-123 mRNA, complete cds: 1.597
  mean normalized intensity (log format), gene: Homo sapiens Wilms tumor 1 (WT1), transcript variant D, mRNA.: 2.405
  mean normalized intensity (log format), gene: Homo sapiens cDNA FLJ11398 fis, clone HEMBA1000637.: 2.5268
  mean normalized intensity (log format), gene: Homo sapiens cDNA: FLJ22547 fis, clone HSI00356: 4.294
  mean normalized intensity (log format), gene: Homo sapiens cadherin 6, type 2, K-cadherin (fetal kidney) (CDH6), mRNA.: 0.8248
  mean normalized intensity (log format), gene: Homo sapiens chorionic somatomammotropin hormone 2 (CSH2), transcript variant 1, mRNA.: 1.124
  mean normalized intensity (log format), gene: Homo sapiens chorionic somatomammotropin hormone 2 (CSH2), transcript variant 4, mRNA.: 0.8122
  mean normalized intensity (log format), gene: Homo sapiens galanin receptor 1 (GALR1), mRNA.: 2.507
  mean normalized intensity (log format), gene: Homo sapiens growth hormone 2 (GH2), transcript variant 2, mRNA.: 0.9226
  mean normalized intensity (log format), gene: Homo sapiens hypothetical protein FLJ20075 (FLJ20075), mRNA.: −0.3592
  mean normalized intensity (log format), gene: Homo sapiens mRNA for SCCA2b, complete cds.: 3.329
  mean normalized intensity (log format), gene: Homo sapiens mRNA; cDNA DKFZp586P1124 (from clone DKFZp586P1124): 0.4856
  mean normalized intensity (log format), gene: Homo sapiens methyl-CpG binding protein MBD2 (MBD2) mRNA, complete cds.: 0.4906
  mean normalized intensity (log format), gene: Homo sapiens tachykinin, precursor 1 (TAC1), transcript variant beta, mRNA.: 2.773
  mean normalized intensity (log format), gene: Homo sapiens testis expressed sequence 14 (TEX14), mRNA.: 3.512
  mean normalized intensity (log format), gene: Homo sapiens, Similar to LIM homeobox protein 8, clone IMAGE: 4839343, mRNA.: −0.06288
  mean normalized intensity (log format), gene: Homo sapiens, Similar to cadherin 6, type 2, K-cadherin (fetal kidney), clone MGC: 1470, mRNA, complete cds.: 2.547
  mean normalized intensity (log format), gene: Homo sapiens, Similar to hypothetical protein FLJ10058, clone MGC: 34305 IMAGE: 5167647, mRNA, complete cds.: 1.698
  mean normalized intensity (log format), gene: Homo sapiens, Similar to hypothetical protein FLJ32001, clone MGC: 39559 IMAGE: 4828136, mRNA, complete cds.: 0.5207
  mean normalized intensity (log format), gene: Homo sapiens, clone IMAGE: 4067166, mRNA: 0.1959
  mean normalized intensity (log format), gene: Homo sapiens, clone IMAGE: 4828836, mRNA.: 0.9729
  mean normalized intensity (log format), gene: Homo sapiens, serine (or cysteine) proteinase inhibitor, clade B (ovalbumin), member 3, clone MGC: 12244, mRNA, complete cds.: 1.969
  mean normalized intensity (log format), gene: Human mRNA upregulated during camptothecin-induced apoptosis of U937 cells.: 0.4945
  mean normalized intensity (log format), gene: Human platelet-derived growth factor alpha-receptor (PDGFRA) mRNA, exons 13-16: 2.445
  mean normalized intensity (log format), gene: KIAA1151 protein: 0.6425
  mean normalized intensity (log format), gene: caldesmon 1: 7.092
  mean normalized intensity (log format), gene: nuclear receptor subfamily 1, group I, member 3: 1.779
  mean normalized intensity (log format), gene: paternally expressed 3 (r2033): 2.876
  mean normalized intensity (log format), gene: paternally expressed 3 (r2093): 2.874
On MEFS
  mean normalized intensity (log format), gene: DKFZP566K1924 protein: 1.391
  mean normalized intensity (log format), gene: ESTs (r2006): −1.3
  mean normalized intensity (log format), gene: ESTs (r2025): 1.373
  mean normalized intensity (log format), gene: ESTs (r2032): −1.566
  mean normalized intensity (log format), gene: ESTs (r2038): 1.5682
  mean normalized intensity (log format), gene: ESTs (r2134): −0.9461
  mean normalized intensity (log format), gene: ESTs (r2148): 5.334
  mean normalized intensity (log format), gene: ESTs, Moderately similar to ALU2_HUMAN ALU SUBFAMILY SB SEQUENCE CONTAMINATION WARNING ENTRY (H. sapiens): 3.874
  mean normalized intensity (log format), gene: H. sapiens mRNA for B-HLH DNA binding protein.: 3.451
  mean normalized intensity (log format), gene: Homo sapiens BCL2-interacting killer (apoptosis-inducing) (BIK), mRNA.: 3.562
  mean normalized intensity (log format), gene: Homo sapiens Charot-Leyden crystal protein (CLC), mRNA.: 2.1096
  mean normalized intensity (log format), gene: Homo sapiens HES-related repressor protein 1 HERP1 mRNA, complete cds.: 2.406
  mean normalized intensity (log format), gene: Homo sapiens HSPC156 protein (HSPC156), mRNA.: 1.296
  mean normalized intensity (log format), gene: Homo sapiens KIAA0469 gene product (KIAA0469), mRNA.: 2.565
  mean normalized intensity (log format), gene: Homo sapiens PNAS-123 mRNA, complete cds: 1.847
  mean normalized intensity (log format), gene: Homo sapiens Wilms tumor 1 (WT1), transcript variant D, mRNA.: −2.435
  mean normalized intensity (log format), gene: Homo sapiens cDNA FLJ11398 fis, clone HEMBA1000637.: 1.849
  mean normalized intensity (log format), gene: Homo sapiens cDNA: FLJ22547 fis, clone HSI00356: 2.095
  mean normalized intensity (log format), gene: Homo sapiens cadherin 6, type 2, K-cadherin (fetal kidney) (CDH6), mRNA.: −0.8763
  mean normalized intensity (log format), gene: Homo sapiens chorionic somatomammotropin hormone 2 (CSH2), transcript variant 1, mRNA.: 2.616
  mean normalized intensity (log format), gene: Homo sapiens chorionic somatomammotropin hormone 2 (CSH2), transcript variant 4, mRNA.: 2.218
  mean normalized intensity (log format), gene: Homo sapiens galanin receptor 1 (GALR1), mRNA.: −0.338
  mean normalized intensity (log format), gene: Homo sapiens growth hormone 2 (GH2), transcript variant 2, mRNA.: 1.4679
  mean normalized intensity (log format), gene: Homo sapiens hypothetical protein FLJ20075 (FLJ20075), mRNA.: −0.06528
  mean normalized intensity (log format), gene: Homo sapiens mRNA for SCCA2b, complete cds.: 0.568
  mean normalized intensity (log format), gene: Homo sapiens mRNA; cDNA DKFZp586P1124 (from clone DKFZp586P1124): −3.094
